Where a name gives a salt, the structure may show the parent alone.
Columns and labels:
db/db-mice [1] = test: HbA1c levels in db/db-mice after 4 weeks of once daily oral treatment (Micromat II Hemoglobin A1c Test); assay type: in vivo; conditions: female obese db/db-mice; Compound A 3 mg/kg orally, RIMONABANT Hydrochloride 10 mg/kg orally or combination of both, once daily for 4 weeks; vs vehicle; FIG. 1
Protocol: (§1) Aim of the study was to investigate the influence of a combination of RIMONABANT Hydrochloride and Compound A on HbA1c and glucose tolerance.
(§2) Female obese db/db-mice (BKS.Cg/BomTac-m+/+Lepr^db), supplied by Taconic Europe (Denmark) were used at the age of 10-11 weeks. Animals were kept under controlled conditions (22° C., 12 h light/12 h dark cycle) and received standard laboratory chow and water ad libitum. For each group a number of 15 animals were used.
(§3) Animals were treated with Compound A [3 mg/kg orally, suspended in methocel (hypromellose, 4% aequous solution)], RIMONABANT Hydrochloride [10 mg/kg orally, suspended in methocel (hypromellose, 4% aequous solution), Sequoia Research Products, Pangbourne, UK] or a combination of both once daily for 4 weeks. Vehicle treated animals served as control. HbA1c levels were analyzed using the Micromat II Hemoglobin A1c Test (Bio-Rad Laboratories GmbH, 80939 München, Germany). An intraperitoneal glucose tolerance test was performed in 24 h fasted animals. A glucose bolus (1 g/kg body weight) was administered intraperitoneally. Blood glucose was monitored for the following time points: t=−120 min, 0 min (before glucose administration), 30 min, 60 min, 90 min, 120 min (after glucose administration). Blood was taken by tail-tip-bleeding (5 μl) and was determined from hemolysate using an analyzing machine (Biosen S_line, EKF Diagnostic, Germany). […]

db/db-mice [2] = test: Intraperitoneal glucose tolerance test in 24 h fasted db/db-mice after 4 weeks of treatment; assay type: in vivo; conditions: female obese db/db-mice, glucose bolus 1 g/kg i.p., Compound A 3 mg/kg orally, RIMONABANT Hydrochloride 10 mg/kg orally or combination of both, once daily for 4 weeks, FIG. 2
Protocol: as §1, §2, §3

| SMILES | effect on HbA1c (db/db-mice [1]) | effect on glucose tolerance (db/db-mice [2]) |
| --- | --- | --- |
| CCOc1cc2c(cc1OC)C(c1ccc(OC)nc1OC)=N[C@@H]1CC[C@@H](O)C[C@H]21 [Compound A, (2R,4aR,10bR)-6-(2,6-Dimethoxy-pyridin-3-yl)-9-ethoxy-8-methoxy-1,2,3,4,4a,10b-hexahydrophenanthridin-2-ol] | no effect | no effect |
| Cc1c(C(=O)NN2CCCCC2)nn(-c2ccc(Cl)cc2Cl)c1-c1ccc(Cl)cc1 [RIMONABANT Hydrochloride, 5-(4-chlorophenyl)-1-(2,4-dichlorophenyl)-4-methyl-N-piperidin-1-yl-1H-pyrazole-3-carboxamide] | no effect | no effect |

From patent US20120129817A1, “COMBINATION TREATMENT FOR DIABETES MELLITUS” (NYCOMED GMBH, priority 2006, published 2012)
